Laboratory results taken from patent publication US8530493B2, “Indolopyridines as Eg5 kinesin modulators” (4SC AG, priority 2006, dated 2013).

Key:
Format in all cases: cell-based
[1] = system: RKO p27 uninduced (proliferating) colon adenocarcinoma cells; assay: Alamar Blue cell viability assay, RKO p27 uninduced (proliferating); settings: Homo sapiens, RKOp27, Table B1, anti-proliferative/cytotoxic activity, 72 hours, read-out: −log EC50 RKO p27 uninduced (proliferating) (converted)
Procedure: The anti-proliferative/cytotoxic activity of the compounds described herein can be tested on subclones of RKO human colon adenocarcinoma cells (Schmidt et al., Oncogene 19, 2423-2429; 2000) using the Alamar Blue cell viability assay (described in O'Brien et al. Eur J Biochem 267, 5421-5426, 2000). The compounds are dissolved as 10 mM solutions in DMSO and subsequently diluted in semi-logarithmic steps. DMSO dilutions are further diluted 1:100 into Dulbecco's modified Eagle's medium (DMEM) containing 10% fetal calf serum to a final concentration twice as much as the final concentration in the test. RKO subclones are seeded into 96 well flat bottom plates at a density of 4000 cells per well in a volume of 50 μl per well. 24 hours after seeding the 50 μl each of the compound dilutions in DMEM medium are added into each well of the 96 well plate. Each compound dilution is tested as triplicates. Wells containing untreated control cells are filled with 50 μl DMEM medium containing 1% DMSO. The cells are then incubated with the substances for 72 hours at 37° C. in a humidified atmosphere containing 5% carbon dioxide. To determine the viability of the cells, 10 μl of an Alamar Blue solution (Biosource) are added and the fluorescence is measured at an extinction of 544 nm and an emission of 590 nm. For the calculation of the cell viability the emission value from untreated cells is set as 100% viability and the emission rates of treated cells are set in relation to the values of untreated cells. Viabilities are expressed as % values. The Graphpad Prism program is used for the calculation of EC50 values for anti-proliferative/cytotoxic activity out of the obtained dose-response curves.
(§1) To determine the cell cycle specific mode of action, subclones of RKO colon adenocarcinoma cells (RKOp21 or RKOp27 as described by Schmidt et al. in Oncogene 19, 2423-2429; 2000) are seeded into 96 well flat bottom plates at a density of 16000 cells per well in a volume of 50 μl per well in DMEM growth medium with 10% FCS containing 10 μM Ponasterone A. 24 hours after seeding the 50 μl each of the compound dilutions in DMEM medium are added into each well of the 96-well plate. Each compound dilution is tested as triplicates. Wells containing untreated control cells are filled with 50 μl DMEM medium containing 1% DMSO. The cells are then incubated with the substances for 72 hours at 37° C. in a humidified atmosphere containing 5% carbon dioxide. To determine the viability of the cells, 10 μl of an Alamar Blue solution (Biosource) are added and the fluorescence is measured at an extinction of 544 nm and an emission of 590 nm. For the calculation of the cell viability the emission value from untreated cells is set as 100% viability and the emission rates of treated cells are set in relation to the values of untreated cells. Viabilities are expressed as % values. The Graphpad Prism program (GraphPad Software, Inc) is used for the calculation of EC50 values out of the obtained dose-response curves. Viability is compared of proliferating cells grown in the absence of the inducer Ponasterone A, versus viability of cells arrested by the expression of ectopic p27Kip1 induced by Ponasterone A.
(§2) Representative values for anti-proliferation/cytotoxicity [measured as −log EC50 (mol/l)] determined in the aforementioned assays follow from the following tables B1, B2 and B3, in which the numbers of the compounds correspond to the numbers of the examples.

[2] = system: RKO p27 induced (arrested) colon adenocarcinoma cells; assay: Alamar Blue cell viability assay, RKO p27 induced by Ponasterone A (arrested); settings: Homo sapiens, RKOp27, Table B1, cells arrested by Ponasterone A-induced p27Kip1, 72 hours, read-out: −log EC50 RKO p27 induced (arrested) (converted)
Procedure: as §1, §2

[3] = system: RKO p27 or p21 uninduced (proliferating) colon adenocarcinoma cells; assay: Alamar Blue cell viability assay, RKO p27 or p21 uninduced (proliferating); settings: Homo sapiens, RKOp27, 72 h, Table B2, anti-proliferative/cytotoxic activity, read-out: −log EC50 RKO p27 or p21 uninduced (proliferating) (converted)
Procedure, shortened: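 Viability read by Alamar Blue fluorescence (ex 544, em 590 nm), normalised to untreated wells, after 72 h, 37° C, 5% CO2 compound exposure in triplicate. Cells were uninduced (no Ponasterone A), proliferating RKO colon carcinoma p27 or p21 subclones in DMEM with 10% FCS; values are −log EC50 (mol/l).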

[4] = system: RKO p27 or p21 induced (arrested) colon adenocarcinoma cells; assay: Alamar Blue cell viability assay, RKO p27 or p21 induced (arrested); settings: Homo sapiens, RKOp27, Table B2, cells arrested by Ponasterone A, 72 hours, read-out: −log EC50 RKO p27 or p21 induced (arrested) (converted)
Procedure, shortened: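 RKOp21 or RKOp27 subclones in DMEM/10% FCS with 10 μM Ponasterone A to induce p21/p27 arrest, seeded 24 h before compound; triplicate 72 h exposure at 37 °C. Alamar Blue fluorescence (544/590 nm) as % of untreated (1% DMSO) cells; EC50 from dose-response curves, reported as −log EC50 (mol/l).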

| EC50 [2] [nM] | EC50 [4] [nM] | Structure (SMILES) | EC50 [1] [nM] | EC50 [3] [nM] |
| --- | --- | --- | --- | --- |
| ≥ 3160 | – | CCOc1ccc2[nH]c3c(c2c1)C[C@@]1(C)C(=O)N(C)C(=O)N1[C@@H]3c1cccc(O)c1 (racemic) [Example 1, (3aSR,10RS)-6-Ethoxy-10-(3-hydroxy-phenyl)-2,3a-dimethyl-3a,4,9,10-tetrahydro-2,9,10a-triaza-cyclopenta[b]fluorene-1,3-dione] | 39.8 to 251 | – |
| ≥ 3160 | – | COc1ccc2[nH]c3c(c2c1)C[C@@]1(C)C(=O)N(C)C(=O)N1[C@@H]3c1cccc(O)c1 (racemic) [Example 3, (3aSR,10RS)-10-(3-Hydroxy-phenyl)-6-methoxy-2,3a-dimethyl-3a,4,9,10-tetrahydro-2,9,10a-triaza-cyclopenta[b]fluorene-1,3-dione] | ≤ 39.8 | – |
| ≥ 3160 | – | CN1C(=O)N2[C@H](c3cccc(O)c3)c3[nH]c4ccc(Br)cc4c3C[C@@]2(C)C1=O (racemic) [Example 4, (3aSR,10RS)-6-Bromo-10-(3-hydroxy-phenyl)-2,3a-dimethyl-3a,4,9,10-tetrahydro-2,9,10a-triaza-cyclopenta[b]fluorene-1,3-dione] | 39.8 to 251 | – |
| ≥ 3160 | – | CN1C(=O)N2[C@H](c3cccc(O)c3)c3[nH]c4ccc(Cl)cc4c3C[C@@]2(C)C1=O (racemic) [Example 5, (3aSR,10RS)-6-Chloro-10-(3-hydroxy-phenyl)-2,3a-dimethyl-3a,4,9,10-tetrahydro-2,9,10a-triaza-cyclopenta[b]fluorene-1,3-dione] | 39.8 to 251 | – |
| – | ≥ 3160 | CCN(CC)CCCN1C(=O)N2[C@H](c3cccc(O)c3)c3[nH]c4ccc(Cl)cc4c3C[C@@]2(C)C1=O (racemic) [Example 137, (3aSR,10RS)-6-Chloro-2-(3-diethylamino-propyl)-10-(3-hydroxy-phenyl)-3a-methyl-3a,4,9,10-tetrahydro-2,9,10a-triaza-cyclopenta[b]fluorene-1,3-dione] | – | ≤ 39.8 |
| – | ≥ 3160 | C[C@@]12Cc3c([nH]c4ccc(Cl)cc34)[C@@H](c3cccc(O)c3)N1C(=O)N(CCCNC1CCC1)C2=O (racemic) [Example 138, (3aSR,10RS)-6-Chloro-2-(3-cyclobutylamino-propyl)-10-(3-hydroxy-phenyl)-3a-methyl-3a,4,9,10-tetrahydro-2,9,10a-triaza-cyclopenta[b]fluorene-1,3-dione] | – | ≤ 39.8 |
| – | ≥ 3160 | C=CCNCCCN1C(=O)N2[C@H](c3cccc(O)c3)c3[nH]c4ccc(Cl)cc4c3C[C@@]2(C)C1=O (racemic) [Example 139, (3aSR,10RS)-2-(3-Allylamino-propyl)-6-chloro-10-(3-hydroxy-phenyl)-3a-methyl-3a,4,9,10-tetrahydro-2,9,10a-triaza-cyclopenta[b]fluorene-1,3-dione] | – | ≤ 39.8 |
| – | ≥ 3160 | CCN(C)CCCN1C(=O)N2[C@H](c3cccc(O)c3)c3[nH]c4ccc(Cl)cc4c3C[C@@]2(C)C1=O (racemic) [Example 140, (3aSR,10RS)-6-Chloro-2-[3-(ethyl-methyl-amino)-propyl]-10-(3-hydroxy-phenyl)-3a-methyl-3a,4,9,10-tetrahydro-2,9,10a-triaza-cyclopenta[b]fluorene-1,3-dione] | – | ≤ 39.8 |
| – | ≥ 3160 | C[C@@]12Cc3c([nH]c4ccc(Cl)cc34)[C@@H](c3cccc(O)c3)N1C(=O)N(CCCN1CCC1)C2=O (racemic) [Example 141, (3aSR,10RS)-2-(3-Azetidin-1-yl-propyl)-6-chloro-10-(3-hydroxy-phenyl)-3a-methyl-3a,4,9,10-tetrahydro-2,9,10a-triaza-cyclopenta[b]fluorene-1,3-dione] | – | ≤ 39.8 |
| – | ≥ 316 | COc1ccc2[nH]c3c(c2c1)C[C@@]1(C)C(=O)N(CCCNCC(F)F)C(=O)N1[C@@H]3c1cccc(O)c1 (racemic) [Example 142, (3aSR,10RS)-2-[3-(2,2-Difluoro-ethylamino)-propyl]-10-(3-hydroxy-phenyl)-6-methoxy-3a-methyl-3a,4,9,10-tetrahydro-2,9,10a-triaza-cyclopenta[b]fluorene-1,3-dione] | – | 39.8 to 251 |
| – | ≥ 316 | COc1ccc2[nH]c3c(c2c1)C[C@@]1(C)C(=O)N(CCCN(C)CCO)C(=O)N1[C@@H]3c1cccc(O)c1 (racemic) [Example 143, (3aSR,10RS)-2-{3[(2-Hydroxy-ethyl)-methyl-amino]-propyl}-10-(3-hydroxy-phenyl)-6-methoxy-3a-methyl-3a,4,9,10-tetrahydro-2,9,10a-triaza-cyclopenta[b]fluorene-1,3-dione] | – | ≤ 39.8 |
| – | ≥ 316 | C#CCN(C)CCCN1C(=O)N2[C@H](c3cccc(O)c3)c3[nH]c4ccc(OC)cc4c3C[C@@]2(C)C1=O (racemic) [Example 144] | – | 39.8 to 251 |
| – | ≥ 316 | COc1ccc2[nH]c3c(c2c1)C[C@@]1(C)C(=O)N(CCCNCCO)C(=O)N1[C@@H]3c1cccc(O)c1 (racemic) [Example 145, (3aSR,10RS)-2-[3-(2-Hydroxy-ethylamino)-propyl]-10-(3-hydroxy-phenyl)-6-methoxy-3a-methyl-3a,4,9,10-tetrahydro-2,9,10a-triaza-cyclopenta[b]fluorene-1,3-dione] | – | ≤ 39.8 |
| – | ≥ 316 | C=CCNCCCN1C(=O)N2[C@H](c3cccc(O)c3)c3[nH]c4ccc(OC)cc4c3C[C@@]2(C)C1=O (racemic) [Example 146, (3aSR,10RS)-2-(3-Allylamino-propyl)-10-(3-hydroxy-phenyl)-6-methoxy-3a-methyl-3a,4,9,10-tetrahydro-2,9,10a-triaza-cyclopenta[b]fluorene-1,3-dione] | – | ≤ 39.8 |
| – | ≥ 316 | C#CCNCCCN1C(=O)N2[C@H](c3cccc(O)c3)c3[nH]c4ccc(OC)cc4c3C[C@@]2(C)C1=O (racemic) [Example 147, (3aSR,10RS)-10-(3-Hydroxy-phenyl)-6-methoxy-3a-methyl-2-(3-prop-2-ynylamino-propyl)-3a,4,9,10-tetrahydro-2,9,10a-triaza-cyclopenta[b]fluorene-1,3-dione] | – | ≤ 39.8 |
| – | ≥ 316 | COc1ccc2[nH]c3c(c2c1)C[C@@]1(C)C(=O)N(CCCN2CCOCC2)C(=O)N1[C@@H]3c1cccc(O)c1 (racemic) [Example 148, (3aSR,10RS)-10-(3-Hydroxy-phenyl)-6-methoxy-3a-methyl-2-(3-morpholin-4-yl-propyl)-3a,4,9,10-tetrahydro-2,9,10a-triaza-cyclopenta[b]fluorene-1,3-dione] | – | ≤ 39.8 |
| – | ≥ 316 | COc1ccc2[nH]c3c(c2c1)C[C@@]1(C)C(=O)N(CCCN2CC=CC2)C(=O)N1[C@@H]3c1cccc(O)c1 (racemic) [Example 149, (3aSR,10RS)-2-[3-(2,5-Dihydro-pyrrol-1-yl)-propyl]-10-(3-hydroxy-phenyl)-6-methoxy-3a-methyl-3a,4,9,10-tetrahydro-2,9,10a-triaza-cyclopenta[b]fluorene-1,3-dione] | – | ≤ 39.8 |
